Experimental data from US20100144733A1, “Compounds, compositions and methods comprising heteroaromatic derivatives” (Institute for OneWorld Health, priority 2008, published 2010).
Like-named read-outs stand apart in the source and are kept apart here.

Molecular target: T1, CFTR (Homo sapiens, UniProt P13569)
T1 construct: endogenous in cells; host or cells: T84 human colonic cells (ECACC)
Experiment: T84 assay (FLIPR membrane potential dye, forskolin/IBMX-stimulated CFTR channel activity)
Format: cell-based
Description: (§1) For example, Human colonic T84 cells can be acquired from the European Collection of Cell Cultures (ECACC) and grown in standard culture conditions as described by the supplier. On the day before assay 25,000 T84 cells per well are plated into standard black walled, clear bottom 384-well assay plates in standard growth medium consisting of DMEM:F12 with 10% FBS and incubated overnight. On the day of the assay the plates are washed using a standard assay buffer (HBSS with 10 mM Hepes) and incubated for 15 minutes in serum free cell culture medium before the addition of a commercially available membrane potential sensitive fluorescent dye (FLIPRRed membrane potential dye, Molecular Devices Corporation). T84 cells are incubated with the FLIPRRed membrane potential dye for 45 minutes in the presence and absence of test compound before being transferred to a commercially available fluorescence imaging plate reader (FLIPR384, Molecular Devices Corporation). Fluorescence levels are monitored continuously every second for 150 seconds; after an initial 10 second baseline, CFTR channel activity is stimulated through the addition of 10 μM forskolin in the presence of 100 μM of the phosphodiesterase inhibitor iso-butyl-methylxanthine (IBMX). Addition of the forskolin leads to the activation of intracellular adenylyl cylase 1, elevating cAMP levels and results in the phosphorylation and opening of CFTR anion channels. CFTR channel opening causes chloride ion efflux and subsequent depolarization of the cells, which is measured by an increase in fluorescence. CFTR inihibitor compounds prevent cell depolarization and the associatred increase in fluorescence.
as §1, with “Human colonic” for “For example, Human colonic”, “T84 cells are acquired from” for “T84 cells can be acquired from”, “(ECACC) and are grown in” for “(ECACC) and grown in”, “10 μM Forskolin in the” for “10 μM forskolin in the”, “fluorescence. CFTR inhibitor compounds prevent” for “fluorescence. CFTR inihibitor compounds prevent”, “and the associated increase in” for “and the associatred increase in”

[1] = isoxazole-containing compounds (Table 10, 10′, 11, 11′), read-out: IC50
[2] = thiadiazole-containing compounds (Table 12), read-out: IC50
[3] = oxadiazole-containing compounds (a series), average of at least 2 runs unless annotated n = 1, read-out: IC50

T1 sequence (P13569 whole entry): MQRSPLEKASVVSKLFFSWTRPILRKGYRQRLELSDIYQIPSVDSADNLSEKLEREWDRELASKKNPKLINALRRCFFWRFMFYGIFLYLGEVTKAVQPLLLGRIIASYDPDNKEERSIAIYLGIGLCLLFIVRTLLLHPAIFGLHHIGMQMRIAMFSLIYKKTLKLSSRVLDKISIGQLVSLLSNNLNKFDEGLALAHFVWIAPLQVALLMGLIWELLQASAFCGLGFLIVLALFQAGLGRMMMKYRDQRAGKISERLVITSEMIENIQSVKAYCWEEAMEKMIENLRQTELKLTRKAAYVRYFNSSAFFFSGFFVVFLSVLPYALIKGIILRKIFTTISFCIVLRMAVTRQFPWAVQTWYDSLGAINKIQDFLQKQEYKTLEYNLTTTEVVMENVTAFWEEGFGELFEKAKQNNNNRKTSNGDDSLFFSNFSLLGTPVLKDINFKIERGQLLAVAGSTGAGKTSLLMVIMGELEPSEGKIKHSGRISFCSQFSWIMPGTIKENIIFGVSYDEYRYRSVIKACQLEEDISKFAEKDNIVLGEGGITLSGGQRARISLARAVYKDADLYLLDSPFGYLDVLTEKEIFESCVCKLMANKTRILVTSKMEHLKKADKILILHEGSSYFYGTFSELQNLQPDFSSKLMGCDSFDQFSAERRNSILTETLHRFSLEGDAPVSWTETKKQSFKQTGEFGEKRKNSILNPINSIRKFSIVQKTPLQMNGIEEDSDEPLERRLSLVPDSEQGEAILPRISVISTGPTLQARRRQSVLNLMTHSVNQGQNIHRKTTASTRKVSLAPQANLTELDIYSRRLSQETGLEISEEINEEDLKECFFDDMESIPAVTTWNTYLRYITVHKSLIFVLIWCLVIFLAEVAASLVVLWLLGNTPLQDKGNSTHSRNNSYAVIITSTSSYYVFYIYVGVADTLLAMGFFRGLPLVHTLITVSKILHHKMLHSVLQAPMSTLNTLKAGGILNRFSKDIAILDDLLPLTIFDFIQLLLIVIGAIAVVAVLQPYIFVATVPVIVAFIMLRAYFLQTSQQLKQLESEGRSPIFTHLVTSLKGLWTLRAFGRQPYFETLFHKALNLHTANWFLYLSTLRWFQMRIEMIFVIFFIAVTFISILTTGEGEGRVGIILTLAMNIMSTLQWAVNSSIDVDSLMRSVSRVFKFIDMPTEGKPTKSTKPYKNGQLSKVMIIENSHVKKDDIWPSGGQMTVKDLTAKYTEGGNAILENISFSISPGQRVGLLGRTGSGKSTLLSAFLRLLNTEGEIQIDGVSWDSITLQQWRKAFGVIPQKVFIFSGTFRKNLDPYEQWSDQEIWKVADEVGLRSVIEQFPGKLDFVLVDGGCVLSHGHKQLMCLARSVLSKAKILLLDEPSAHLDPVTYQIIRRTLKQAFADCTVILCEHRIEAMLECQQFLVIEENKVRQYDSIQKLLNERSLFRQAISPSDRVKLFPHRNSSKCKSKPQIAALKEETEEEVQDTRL

Compound	IC50 [1] [µM]	IC50 [2] [µM]	IC50 [3] [µM]	also measured
CN(Cc1ccccc1)C(=O)c1cc(-c2cc(Br)c(O)c(Br)c2)on1 [1g, N-Benzyl-5-(3,5-dibromo-4-hydroxyphenyl)-N-methylisoxazole-3-carboxamide]	7.65	–	–	–
Oc1c(Cl)cc(-c2nnc(Cc3cccc(Cl)c3)s2)cc1Cl [1h, 2,6-dichloro-4-(5-(3-chlorobenzyl)-1,3,4-thiadiazol-2-yl)phenol]	–	5.65	–	–
O=C(c1nc(-c2cc(Br)c(O)c(Br)c2)no1)N(Cc1cccnc1)Cc1cccc(C(F)(F)F)c1 [2a, 3-(3,5-dibromo-4-hydroxyphenyl)-N-(pyridin-3-ylmethyl)-N-(3-(trifluoromethyl)benzyl)-1,2,4-oxadiazole-5-carboxamide]	–	–	1.03	–
Oc1c(Cl)cc(-c2nnc(COc3ccc(F)cc3Cl)s2)cc1Cl [2h, 2,6-dichloro-4(5-((2-chloro-4-fluorophenoxy)methyl)-1,3,4-thiadiazol-2-yl)phenol]	–	5.65	–	–
CN(C(=O)c1nc(-c2cc(Br)c(O)c(Br)c2)no1)c1ccc(OC(F)(F)F)cc1 [3a, 3-(3,5-dibromo-4-hydroxyphenyl)-N-methyl-N-(4(trifluoromethoxy)phenyl)-1,2,4-oxadiazole-5-carboxamide]	–	–	2.62	–
CN(Cc1cccc(C(F)(F)F)c1)C(=O)c1cc(-c2cc(Br)c(O)c(Br)c2)on1 [3g, 5-(3,5-dibromo-4-hydroxyphenyl)-N-methyl-N-(3-(trifluoromethyl)benzyl)isoxazole-3-carboxamide]	16.6	–	–	–
Oc1c(Cl)cc(-c2nnc(CN3c4ccccc4Sc4ccccc43)s2)cc1Cl [3h, 4-(5-((10H-Phenothiazin-10-yl)methyl)-1,3,4-thiadiazol-2-yl)-2,6-dichlorophenol]	–	6.57	–	–
O=C(c1nc(-c2cc(Br)c(O)c(Br)c2)no1)N1CCN(c2ccc(Cl)c(C(F)(F)F)c2)CC1 [4a, (4-(4-chloro-3-(trifluoromethyl)phenyl)piperazin-1-yl)(3-(3,5-dibromo-4-hydroxyphenyl)-1,2,4-oxadiazol-5-yl)methanone]	–	–	4.72	–
CN(Cc1ccc2c(c1)OCO2)C(=O)c1cc(-c2cc(Br)c(O)c(Br)c2)on1 [4g, N-(benzo[d][1,3]dioxol-5-ylmethyl)-5-(3,5-dibromo-4-hydroxyphenyl)-N-methylisoxazole-3-carboxamide]	19	–	–	–
Cc1cc(Cl)ccc1OCc1nnc(-c2cc(Cl)c(O)c(Cl)c2)s1 [4h, 2,6-dichloro-4(5-((4-chloro-2-methylphenoxy)methyl)-1,3,4-thiadiazol-2-yl)phenol]	–	12.7	–	–
O=C(c1ncn(-c2cc(Cl)c(O)c(Cl)c2)n1)N1CCC(Cc2ccccc2)CC1 [5i, (4-benzylpiperidin-1-yl)(1-(3,5-dichloro-4-hydroxyphenyl)-1H-1,2,4-triazol-3-yl)methanone]	–	–	–	IC50 (imidazole and triazole-containing compounds (Tables 13, 14, 14′), read-out: IC50 (μM) (T84 assay)): 15.9 µM

The next lines start with results.

IC50 [1] [µM]	IC50 [2] [µM]	IC50 [3] [µM]	Compound	also measured
–	–	5.23	O=C(NC(c1ccccc1)c1ccccc1)c1nc(-c2cc(Br)c(O)c(Br)c2)no1 [5a, N-benzhydryl-3-(3,5-dibromo-4-hydroxyphenyl)-1,2,4-oxadiazole-5-carboxamide]	–
5.31	–	–	CN(Cc1ccc(Cl)cc1)C(=O)c1cc(-c2cc(Br)c(O)c(Br)c2)on1 [5g, N-(4-chlorobenzyl)-5-(3,5-dibromo-4-hydroxyphenyl)-N-methylisoxazole-3-carboxamide]	–
–	13.4	–	Oc1c(Cl)cc(-c2nnc(-c3snnc3-c3ccccc3)s2)cc1Cl [5h, 2,6-dichloro-4(5-(4-phenyl-1,2,3-thiadiazol-5-yl)-1,3,4-thiadiazol-2-yl)phenol]	–
–	–	6.19	O=C(c1nc(-c2cc(Br)c(O)c(Br)c2)no1)N1CCN(c2cccc(C(F)(F)F)c2)CC1 [6a, (3-(3,5-dibromo-4-hydroxyphenyl)-1,2,4-oxadiazol-5-yl)(4-(3-(trifluoromethyl)phenyl)piperazin-1-yl)methanone]	–
7.02	–	–	CN(Cc1cccc(C(F)(F)F)c1)C(=O)c1cc(-c2cc(Cl)c(O)c(Cl)c2)on1 [6g, 5-(3,5-dichloro-4-hydroxyphenyl)-N-methyl-N-(3-(trifluoromethyl)benzyl)isoxazole-3-carboxamide]	–
